{"source": "patent US12544444B2", "about": "“Administration of tailored feedstock to increase antibiotic susceptibility” (U.S. Government, as represented by the Sec. of Army, c/o …, priority 2018, dated 2026)", "system": "Clostridium acetobutylicum", "assay": "antibiotic sensitivity test (OD600 after 24 hours in 96-well plate, anaerobic)", "assay_type": "cell-based, Clostridium acetobutylicum strain ATCC 824", "conditions": "C. acetobutylicum given oxidized feedstock compared to glucose as feedstock; FIG. 2, after 24 hours", "protocol": "Bacterial culture conditions and strains have been previously published. All strains and cultures were maintained or grown in an atmosphere of 5.0% H2, 5.0% CO2, and 90.0% N2. Clostridium acetobutylicum strain ATCC 824 was obtained from ATCC and cultured using company protocol at 37° C. into Clostridial growth medium or CGM containing 0.75 g KH2PO4, 0.75 g K2HPO4, 1.0 g NaCl, 0.017 g MnSO4.5H2O, 0.70 g MgSO4.7H2O, 0.01 g FeSO4.7H2O, 2.0 g 1-asparagine, 5.0 g yeast extract, 2.0 g (NH4)2SO4, and 0.5% final concentration of desired carbohydrate—D-glucose, D-galacturonic acid, D-gluconic acid—at pH 6.5. Active cultures from initial growth stock were added to potato glucose medium to be maintained and stored as a spore solution. Potato glucose medium or PGM contains per liter of H2O—150 g grated fresh potato, 10 g D-glucose, 0.5 g (NH4)SO4, and 3 g CaCO3. The medium was boiled for 1 hour and strained through gauze before sterilization and use for culture. […]\nThe protocol for antibiotic sensitivity test was performed as follows in anaerobic conditions: 200 μL of CGM medium containing either 0.5% D-galacturonate or D-glucose was aliquoted into a sterile Costar® 96-well polystyrene flat bottom plate in triplicate per test condition. […] The optical density of the cultures in the wells were measured at 600 nm via a commercially available plate reader."}
{"smiles": "Cc1ncc([N+](=O)[O-])n1CCO", "note": "[metronidazole]", "values": [{"measurement": "antibiotic (metronidazole) susceptibility increase", "result": "at least two-fold"}]}
